Where a name gives a salt, the structure may show the parent alone.
biological target: T1, 2,3-DPG phosphatase (Homo sapiens, UniProt P07738); experiment: 2,3-Diphosphoglycerate Phosphatase Assay (radiochemical, release of inorganic 32P-phosphate from 2,3-DPG); format: biochemical; details: 100 μM compound; pH 7.5, 110 μM 32P-labeled 2,3-DPG, 5 μM phosphoglycolate, 37° C., 20 minutes
T1 sequence (P07738 1-259): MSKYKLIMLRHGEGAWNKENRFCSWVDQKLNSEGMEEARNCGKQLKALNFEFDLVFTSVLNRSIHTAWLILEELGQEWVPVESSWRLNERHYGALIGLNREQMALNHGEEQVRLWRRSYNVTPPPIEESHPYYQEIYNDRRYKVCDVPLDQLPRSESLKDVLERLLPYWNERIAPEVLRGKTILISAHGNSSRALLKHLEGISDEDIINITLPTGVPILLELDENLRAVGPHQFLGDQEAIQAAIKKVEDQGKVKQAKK
Procedure: 2,3-Diphosphoglycerate Phosphatase Assay The activity of 2,3-DPG phosphatase was determined radiochemically using a method based on Rose et al. (J. Biol. Chem. 245, 3232-3241, 1970). In this method the activity of the phosphatase is measured by determining the release of inorganic phosphate from the substrate, 2,3-DPG. The test compounds were dissolved in dimethyl sulfoxide at 100 times the final concentration used and then added to the reaction mixture at the beginning of the assay period. In the control experiments equivalent concentration of dimethyl sulfoxide was used. […] At the end of incubation the reaction was stopped by the addition of 0.1 ml of 15% w/v trichloroacetic acid and the sample was centrifuged (Eppendorf microfuge, Model 5413) in order to remove protein precipitates. Then 0.2 ml of the supernatant was withdrawn and mixed with 0.1 ml of 8 M sulfuric acid, 0.1 ml of 5% w/v ammonium molybdate and 0.6 ml of water. The mixture then was extracted with 2 ml of isobutanol/benzene (1:1,v/v) and then centrifuged to effect separation of the phases. 1 ml of the organic phase containing the extracted ^32 p-phosphate was counted in a scintillation counter (Beckman, Model LS 8,000) using a program for ^32 p radioactivity. The activity of the enzyme was expressed as number of mole phosphate release per minute. From the data obtained by employing the test method above-described, the percent inhibition of 2,3-DPG phosphatase was calculated and is shown in Table II.

Point of comparison: `O=C(O)c1cc2cccc(OCc3c(Cl)cccc3Cl)c2cc1O` [t, 5-(2,6-dichlorobenzyloxy)-3-hydroxy-2-naphthoic acid], inhibition at 100 µM 94.2%. Against it:
- O=C(O)c1cc2cccc(OCc3cccc(C(F)(F)F)c3)c2cc1O [c, 5-(3-trifluoromethylbenzyloxy)-3-hydroxy-2-naphthoic acid] — higher, 94.3%
- C=CCCCCCCCCCOc1cccc2cc(C(=O)O)c(O)cc12 [x, 3-hydroxy-5(undecenyloxy)-2-naphthoic acid] — higher, 100%
- O=C(O)c1cc2cccc(OCc3ccc(Cl)cc3Cl)c2cc1O [s, 5-(2,4-dichlorobenzyloxy)-3-hydroxy-2-naphthoic acid] — higher, 95.6%
- O=C(O)c1cc2cccc(OCCc3ccccc3)c2cc1O [b, 5-phenetoxy-3-hydroxy-2-naphthoic acid] — higher, 94.3%
- O=C(O)c1cc2cccc(OCCCc3ccccc3)c2cc1O [r, 3-hydroxy-5-(3-phenylpropoxy)-2-naphthoic acid] — higher, 97.1%
- O=C(O)c1cc2cccc(OCc3ccc(Cl)c(Cl)c3)c2cc1OCc1ccc(Cl)c(Cl)c1 [w, 3,5-bis-(3,4-dichlorobenzyloxy)-2-naphthoic acid] — lower, 93.6%
- O=C(O)c1cc2cccc(OCc3ccccc3)c2cc1OC(=O)C(Cl)Cl [y, 5-benzyloxy-3-dichloroacetoxy-2-naphthoic acid] — lower, 81.9%
- O=C(O)c1cc2cccc(OCCOc3ccccc3)c2cc1O [d, 5-phenoxyethoxy-3-hydroxy-2-naphthoic acid] — lower, 92.5%
- O=C(O)c1cc2cccc(OCc3ccccc3)c2cc1O [h, 5-benzyloxy-3-hydroxy-2-naphthoic acid] — lower, 74%
- O=C(O)c1cc2cccc(OCCCc3ccc(Cl)c(Cl)c3)c2cc1O [u, 5-[3-(3,4-dichlorophenyl)-propoxy]-3-hydroxy-2-naphthoic acid] — lower, 86.9%
- O=C(O)c1cc2cccc(OCc3ccc(Cl)c(Cl)c3)c2cc1O [q, 5-(3,4-dichlorobenzyloxy)-3-hydroxy-2-naphthoic acid] — higher, 97.7%
- CC(=O)Oc1cccc2cc(C(=O)O)c(O)cc12 [g, 5-acetoxy-3-hydroxy-2-naphthoic acid] — lower, 89.6%
- COc1cccc2cc(C(=O)O)c(O)cc12 [a, 5-methoxy-3-hydroxy-2-naphthoic acid] — lower, 79.2%
- CCOC(=O)c1cc2cccc(OCCN3CCCC3)c2cc1OCCN1CCCC1 [p, ethyl 3,5-bis[2-(1-pyrrolidinyl)ethoxy]-2-naphthoate monohydrochloride] — higher, 99.2%
- O=C(O)c1cc2cccc(OCc3ccc(F)cc3)c2cc1O [v, 5-(4-fluorobenzyloxy)-3-hydroxy-2-naphthoic acid] — lower, 89%

system: oxygen-dissociation curve in whole human blood; experiment: not given; details: in vitro, increase of 2,3-DPG; cited from earlier work

In the case of `O=C(O)C(COP(=O)(O)O)OP(=O)(O)O` (centres unmarked) [2,3-DPG, 2,3-diphosphoglyceric acid], the “displacement of the oxygen-dissociation curve (in words)” value is given as “displaces in vitro the oxygen-dissociation curve to the right of normal”.
